# Measured values: patent publication US6171786A, “Methods for preventing multidrug resistance in cancer cells” (priority 1996, dated 2001)
# Entries after “also recorded” stand apart in the source; their conditions may differ. Like-named read-outs stand apart in the source and are kept apart here.
# How the values were obtained:
# [1] = tested on: MDR1 expression (P-glycoprotein); assay: Induction of MDR1 expression by cytotoxic drugs (dye efflux, UIC2, cDNA-PCR); type: cell-based, human
# Experimental: (§1) (Commercially-available kits (for example, from GIBCO/BRL, Gaithersburg, Md.) can be advantageously modified for making cDNA using random hexamers.) PCR is then performed using the following primers: […]
# (§2) (where β2 M represents β2 microglobulin). PCR was performed for β2 M experiments under a regime consisting of 1 cycle comprising denaturation at 94° C. for 3 minutes, primer annealing at 60° C. for 30 seconds, and primer extension at 72° C. for 1 minute, followed by 19 cycles comprising denaturation at 94° C. for 30 seconds, primer annealing at 60° C. for 30 seconds, and primer extension at 72° C. for 1 minute, followed by a final cycle comprising denaturation at 94° C. for 30 seconds, primer annealing at 60° C. for 30 seconds, and primer extension at 72° C. for 5 minutes. MDR1 cDNA sequences were amplified using the identical protocol as for β2 M, but extending the amplification from 19 cycles to 25 cycles. In addition, the cDNA-PCR amplification protocol contained the following modifications: (i) Taq DNA polymerase was added to the PCR mixtures after initial heating of the samples to 94° C. (ii) The yield of the β2 -microglobulin-specific band, obtained after 22-28 cycles of PCR, was used as the primary criterion for equalizing the starting amounts of the cDNA templates in different preparations, in order to account for differential RNA degradation in cells subjected to different types of treatment. ^32 P-labeled PCR products were detected by autoradiography.
# In particular PKC is activated by treatment with Ara-C. Therefore, experiments were performed to test whether Ara-C, which is not transported by P-glycoprotein, would have any effect on P-glycoprotein function in K562 leukemia cells.
# (§3) Also assayed was whether drug-induced MDR1 expression was maintained after cytotoxic drug treatment. […] At different times, MDR1 expression in the surviving cells was analyzed by dye efflux and immunofluorescence labeling with UIC2 (FIG. 3C) or by cDNA-PCR (FIG. 4E).
# K562 cells = tested on: K562 cells
# Experimental: FIG. 6A. Growth inhibition by vinblastine in untreated and Ara-C (ARA)- or Adriamycin (ADR)-treated cells. Cells were treated as in FIG. 3C and grown in the absence of drugs for six weeks. Vinblastine inhibition assay was carried out for 10 days.
# FIG. 6B. Growth inhibition by vinblastine in untreated cells and Rh123-dull and Rh123-bright populations of Ara-C treated cells. […] One week after sorting, vinblastine inhibition assay was carried out for 7 days.
# Cells were plated in duplicate in 96-well microtiter plates at 3,000 cells per well, and allowed to grow in increasing concentrations of different drugs.
# as §3
# MDR1 expression [2] = assay: Inhibition of cytotoxic drug-induced MDR1 expression by cytoplasmic calcium antagonists and calmodulin inhibitors; type: cell-based, human; conditions: H9; 200 μM TMB-8
# tumor [3] = conditions: nude mice, cited from earlier work
# PKC = conditions: in words; cited from earlier work
# MDR1 expression [4] = conditions: cited from earlier work
# tumor [5] = conditions: cited from earlier work
# MDR1 expression [6] = assay: Inhibition of AraC-induced MDR1 expression by phospholipase C inhibitors (RT-PCR); type: cell-based, human; conditions: up to 100 μg/mL D609
# Experimental: The inhibitor was added 45 min. prior to the addition of Ara C. Negative control cultures were incubated as above without the addition of either AraC or U73122.
# The specificity of phospholipase C-targeted inhibition of MDR1 induction by cytotoxic drugs was determined in a comparative experiment using a known inhibitor of […] phospholipase C (PC-PLC).
# PC-PLC = conditions: Wiegmann et al., 1994; cited from earlier work
# [7] = tested on: MDR1 expression (P-glycoprotein); assay: MDR1/P-glycoprotein expression in human cells treated with TPA, DOG, other agents (Rh123 accumulation, UIC2 staining, cDNA-PCR); type: cell-based
# Experimental: KG1 cell line was maintained in Iscove's modified Dulbecco medium with 20% fetal calf serum (FCS) and 2 mM L-glutamine, 100 units/mL penicillin and 100 μg/mL streptomycin (GIBCO Laboratories, Grand Island, N.Y.).
# (§4) PBL were treated with 1 ng/mL TPA; H9 and K562 cells with 10 ng/mL TPA; KG1a and KG1 cells with 100 ng/mL TPA and the other cell lines with 10 ng/mL TPA.
# Mouse IgG2a isotype control antibody was obtained from Sigma. For staining of PBL with UIC2 mAb or isotype control, 10^6 cells were stained at 4° C. with 10 μg of the antibody for 30 minutes and, after two washes, stained for 30 minutes with 10 μg of FITC-conjugated goat anti-mouse IgG2a antibody (Fisher Scientific, Fairlawn, N.J.), diluted 1:2 with PBS plus 2% FCS. Cells were then washed twice with ice-cold PBS plus 2% FCS, stained with PI and kept on ice until analysis. Essentially the same protocol was used for staining of other cell types except that 2 μg of the secondary antibody were used per 10^6 cells. In some experiments, phycoerythrine (PE)-conjugated goat anti-mouse IgG2a was used as the secondary antibody; no PI was added in such cases.
# as §1, §2
# A functional assay was used to detect changes in P-glycoprotein activity in human PBL treated with different agents that induce lymphoid differentiation or activation, based on flow cytometric analysis of cellular accumulation of Rh123, which is a P-glycoprotein-transported fluorescent mitochondrial dye. In this assay, cells expressing little or no P-glycoprotein stain brightly with Rh123, whereas cells with higher levels of P-glycoprotein activity appear Rh123-dull. […] Since the best-known cellular effect of TPA is the stimulation of PKC, DOG (a cell-permeable diacylglycerol and a physiological stimulant of PKC) was also tested to determine its effects on Rh123 accumulation in PBL.
# [8] = tested on: MDR1 expression (P-glycoprotein); assay: MDR1/P-glycoprotein expression in mouse hematopoietic cell lines; type: cell-based
# Experimental: as §4
# Since PBL comprise a heterogeneous population of many different subtypes, a series of leukemia-derived clonal cells lines were tested for changes in P-glycoprotein expression after treatment with TPA.
# MDR1 expression [9] = assay: Inhibition of cytotoxic drug-induced MDR1 expression by protein kinase inhibitors (cDNA-PCR)
# Experimental: (§5) Cells were plated in 6-well Falcon tissue culture plates at 3,300 cells per well, and incubated in the appropriate concentrations of drugs. Each of the protein kinase inhibitors to be tested were added at the appropriate final concentration 45 minutes prior to MDR1 induction by the addition of Ara-C or TPA, with the exception of herbimycin A, which was added 12 hours prior to Ara-C or TPA, and tyrphostins A25 and B46, which were each added 16 hours prior to MDR1 induction by the addition of Ara-C or TPA. Cells were incubated overnight (TPA) or for 10 hours (Ara-C) at 37° C./ 5% CO2 after the addition of the MDR1 inducing agents before harvesting for cDNA-PCR analysis.
# In addition, the analysis of certain drugs imposed added requirements. For experiments using calphostin C, cells were incubated under direct white light illumination. For experiments using D,L-threo-sphingosine, the cell culture medium was pre-treated with the appropriate concentration of the drug for one hour at 37° C. with continuous gentle mixing. After this pretreatment, cells were resuspended in media supplemented with drug and incubated for 45 minutes as described above.
# To further evaluate the capacity of protein kinase inhibitors to suppress MDR1 induction by cytotoxic drugs and PKC agonists, H-9 human T-cell leukemia cells were used in cDNA-PCR assays to examine induced MDR1 mRNA expression levels in the presence of protein kinase inhibitors.
# protein kinases = conditions: Pelosin et al., 1990; cited from earlier work
# MDR1 expression [10] = assay: Inhibition of TPA- or DOG-induced MDR1 expression; type: cell-based, human; conditions: staurosporine 30 nM
# Experimental: as §4, §5
# MRP expression = assay: Inhibition of MRP mRNA expression in H-9 cells (cDNA-PCR); type: cell-based, human; conditions: 100 nM
# Experimental: Cells were plated in 6-well Falcon tissue culture plates at 3,300 cells per well, and incubated in the appropriate concentrations of drugs. Each of the protein kinase inhibitors to be tested were added at their appropriate final concentrations, and the cells then incubated for 10 hours at 37° C. under an atmosphere of 5% CO2.
# PCR was performed using the following primers: […]
# (where β2 M represents β2 microglobulin). PCR was performed for β2 M experiments under a regime consisting of 1 cycle comprising denaturation at 94° C. for 3 minutes, primer annealing at 60° C. for 30 seconds, and primer extension at 72° C. for 1 minute, followed by 19 cycles comprising denaturation at 94° C. for 30 seconds, primer annealing at 60° C. for 30 seconds, and primer extension at 72° C. for 1 minute, followed by a final cycle comprising denaturation at 94° C. for 30 seconds, primer annealing at 60° C. for 30 seconds, and primer extension at 72° C. for 5 minutes.
# H-9 cells were used to analyze the effect of various protein kinase inhibitors on the expression of the multidrug resistance associated protein MRP (Grant et al., ibid.).
compound,measurement,setting,value
CC[C@]1(O)C[C@@H]2CN(CCc3c([nH]c4ccccc34)[C@@](C(=O)OC)(c3cc4c(cc3OC)N(C)[C@H]3[C@@](O)(C(=O)OC)[C@H](OC(C)=O)[C@]5(CC)C=CCN6CC[C@]43[C@@H]65)C2)C1 [vinblastine],MDR1 induction,[1],"MDR1 induction, both at the mRNA and at the protein levels, was observed"
same,MDR1 mRNA expression,[1],induce MDR1 mRNA expression
same,Rh123 or DiOC2(3) efflux by treated cells,[1],3-10%
same,increase in resistance,K562 cells,2-3 fold
same,increase in the ID10 value,K562 cells,2-3 fold
"8-(dimethylamino)octyl-3,4,5-trimethoxybenzoate hydrochloride [TMB-8]",inhibition of AraC-induced MDR1 gene expression,MDR1 expression [2],completely abrogate the ability of AraC to induce MDR1 gene expression
CO[C@@H]1[C@H](N(C)C(=O)c2ccccc2)C[C@H]2O[C@]1(C)n1c3ccccc3c3c4c(c5c6ccccc6n2c5c31)C(=O)NC4 [CGP 41 251],dose showing anti-tumor effect relative to MTD,"tumor [3]; Meyer et al., 1989",anti-tumor effect at one-tenth of their maximum tolerated doses
O=c1c(O)c(-c2ccc(O)c(O)c2)oc2cc(O)cc(O)c12 [quercetin],PKC inhibition,PKC,inhibition of PKC activity
same,effect on anti-tumor effect of cisplatin,"tumor [3]; i.p. 20 mg/kg, Grunicke et al.",potentiate the anti-tumor effect of cisplatin
same,effect on arsenite-induced increase in MDR1 expression,MDR1 expression [4],prevent an increase in MDR1 expression
"CCN(CC)CCN1C(=O)c2c(c3c4cccc(Cl)c4n([C@@H]4O[C@H](CO)[C@@H](OC)[C@H](O)[C@H]4O)c3c3[nH]c4c(Cl)cccc4c23)C1=O [BMY 27557, 8-N-(diethylaminoethyl) rebeccamycin]",optimal total i.p. dose,tumor [5]; nine injections at 12 mg/kg/injection,108 mg/kg
same,optimal single i.p. dose,tumor [5]; single dose,64 mg/kg
"S=C(S)OC1CC2CC1C1CCCC21 (stereo not shown) [D609, tricyclodecan-9-yl-xanthogenate potassium]",inhibition of AraC-induced expression of MDR1,MDR1 expression [6],without an effect; also recorded: incapable of inhibiting AraC-induced expression of MDR1
same,concentration known to inhibit PC-PLC,PC-PLC,100 µg/mL
"CCCCCCCCCCCCCC(=O)O[C@@H]1[C@@H](C)[C@@]2(O)[C@@H](C=C(CO)C[C@]3(O)C(=O)C(C)=C[C@@H]23)[C@@H]2C(C)(C)[C@]12OC(C)=O [TPA, 12-o-tetradecanoylphorbol-13-acetate]",increase of MDR1 expression after treatment,[7]; EJ bladder carcinoma cells,increase of MDR1 expression
same,induction of MDR1 mRNA and P-glycoprotein,[7]; H9 cells,efficiently induced readily detectable levels of MDR1 expression
same,P-glycoprotein expression after exposure,[7]; KG1 and KG1a cells (P-glycoprotein positive),large increase in their P-glycoprotein expression
same,increase of MDR1 expression after treatment,[7]; MCF-7 breast carcinoma cells,increase of MDR1 expression
same,levels of P-glycoprotein on the cell surface (UIC2),[7]; human PBL,markedly increased the levels of P-glycoprotein on the cell surface
same,MDR1 gene expression,[7]; normal human PBL and leukemia/solid tumor cell lines,increase MDR1 gene expression
same,P-glycoprotein expression after exposure,[8]; and LBRM 33 lymphoma,large increase in their P-glycoprotein expression
CC1CN(S(=O)(=O)c2cccc3cnccc23)CCN1 (stereo not shown) [Iso-H7],inhibition of Ara-C induced MDR1 expression,"MDR1 expression [9]; Iso-H7, H-9 cells",No significant inhibition
same,weaker effect on protein kinases than H7,protein kinases,10 fold
CN[C@@H]1C[C@H]2O[C@@](C)([C@@H]1OC)n1c3ccccc3c3c4c(c5c6ccccc6n2c5c31)C(=O)NC4 [staurosporine],"P-glycoprotein expression, compound alone","[7]; KG1, KG1a (P-glycoprotein positive)",significant increase in P-glycoprotein expression
same,"induction of MDR1 expression, compound alone",[7]; P-glycoprotein-negative H9 cells,did not induce MDR1 expression
same,P-glycoprotein expression,[7]; some P-glycoprotein-positive cell lines (human; mouse lines also used),significantly increased P-glycoprotein expression
same,"P-glycoprotein expression, compound alone",[8]; mouse EL4 and LBRM 33 (P-glycoprotein positive),significant increase in P-glycoprotein expression
same,inhibition of DOG (diacylglycerol)-induced MDR1 expression,MDR1 expression [10]; H9 cells / P-glycoprotein-negative cells,completely abolished MDR1 induction; also recorded: prevent MDR1 induction
same,inhibition of TPA-induced MDR1 expression,MDR1 expression [10]; H9 cells,completely abolished MDR1 induction; also recorded: completely inhibited TPA-induced MDR1 expression; also recorded: prevent MDR1 induction
same,prevention of MDR1 induction by chemotherapeutic drugs,MDR1 expression [9],prevent MDR1 induction
same,inhibition of MDR1 induction by cytotoxic drugs,MDR1 expression [9]; concentration not stated,capable of inhibiting MDR1 induction by cytotoxic drugs
same,MRP expression,MRP expression,capable of inhibiting MRP expression; also recorded: strongly inhibited
N=C(N)NCCNS(=O)(=O)c1cccc2cnccc12 [HA1004],inhibition of MDR1 induction by cytotoxic drugs,MDR1 expression [9],totally ineffective
same,PKC inhibition,PKC,inactive against PKC
